Measured values published in patent US9006455B2 (Bristol-Myers Squibb Company, priority 2009, dated 2015).
Read-outs that look alike come from different tables or passages of the source.

Test system: HCV 1b genotype
Assay: HCV Replicon assay (HCV 1b genotype)
Assay type: cell-based
Details: Hepatitis C virus, HCV 1b genotype replicon
Procedure, shortened: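 Cell-based HCV genotype 1b replicon assay in HCV-neo replicon cells, including replicons carrying NS5A resistance substitutions; luciferase reporter read-outs also used.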

[1] = read-out: Range (EC50 values against HCV 1b)

## O=C([C@@H](c1ccccc1)N1CCCCC1)N1CCC[C@H]1c1nc2cc(-c3ccc4ccc(-c5ccc6nc([C@@H]7CCCN7C(=O)[C@@H](c7ccccc7)N7CCCCC7)[nH]c6c5)cc4c3)ccc2[nH]1 [Example 15, 5,5′-(2,7-Naphthalenediyl)bis(2-((2S)-1-((2R)-2-phenyl-2-(1-piperidinyl)acetyl)-2-pyrrolidinyl)-1H-benzimidazole)]
[1]
  EC50: 0.0101 to 1 nM

## COC(=O)N[C@@H](C)C(=O)N1CCC[C@H]1c1nc2cc(-c3ccc4ccc(-c5ccc6nc([C@@H]7CCCN7C(=O)[C@H](C)NC(=O)OC)[nH]c6c5)cc4c3)ccc2[nH]1 [Example 13, Methyl((1S)-2-((2S)-2-(5-(7-(2-((2S)-1-(N-(methoxycarbonyl)-L-alanyl)-2-pyrrolidinyl)-1H-benzimidazol-5-yl)-2-naphthyl)-1H-benzimidazol-2-yl)-1-pyrrolidinyl)-1-methyl-2-oxoethyl)carbamate]
[1]
  EC50: 1.01 to 1000 nM

## COC(=O)N[C@H](C(=O)N1CCC[C@H]1c1ncc(-c2ccc3cc(-c4ccc5nc([C@@H]6CCCN6C(=O)[C@@H](NC(=O)OC)C6CCOCC6)[nH]c5c4)ccc3c2)[nH]1)C1CCOCC1 [Example 28, Methyl((1S)-2-((2S)-2-(4-(6-(2-((2S)-1-((2S)-2-((methoxycarbonyl)amino)-2-(tetrahydro-2H-pyran-4-yl)acetyl)-2-pyrrolidinyl)-1H-benzimidazol-5-yl)-2-naphthyl)-1H-imidazol-2-yl)-1-pyrrolidinyl)-2-oxo-1-(tetrahydro-2H-pyran-4-yl)ethyl)carbamate]
[1]
  EC50: 0.0101 to 1 nM

## COC(=O)N[C@H](C(=O)N1CCC[C@H]1c1nc2nc(-c3ccc4cc(-c5cnc6[nH]c([C@@H]7CCCN7C(=O)[C@@H](NC(=O)OC)C(C)C)nc6n5)ccc4c3)cnc2[nH]1)C(C)C [Example 24, Methyl((1S)-1-(((2S)-2-(5-(6-(2-((2S)-1-((2S)-2-((methoxycarbonyl)amino)-3-methylbutanoyl)-2-pyrrolidinyl)-1H-imidazo[4,5-b]pyrazin-5-yl)-2-naphthyl)-1H-imidazo[4,5-b]pyrazin-2-yl)-1-pyrrolidinyl)carbonyl)-2-methylpropyl)carbamate]
[1]
  EC50: 0.0101 to 1 nM

## COC(=O)N[C@H](C(=O)N1CCC[C@@H]1c1nc2nc(-c3ccc4cc(-c5cnc6[nH]c([C@H]7CCCN7C(=O)[C@@H](NC(=O)OC)C(C)C)nc6n5)ccc4c3)cnc2[nH]1)C(C)C [Example 25B, Methyl((1S)-1-(((2R)-2-(5-(6-(2-((2R)-1-((2S)-2-((methoxycarbonyl)amino)-3-methylbutanoyl)-2-pyrrolidinyl)-1H-imidazo[4,5-b]pyrazin-5-yl)-2-naphthyl)-1H-imidazo[4,5-b]pyrazin-2-yl)-1-pyrrolidinyl)carbonyl)-2-methylpropyl)carbamate]
[1]
  EC50: 1.01 to 1000 nM

## COC(=O)NC(C(=O)N1[C@@H]2C[C@@H]2C[C@H]1c1ncc(C#Cc2ccc3cc(-c4cnc([C@@H]5C[C@H]6C[C@H]6N5C(=O)C(NC(=O)OC)C5CCOCC5)[nH]4)ccc3c2)[nH]1)C1CCOCC1 (stereo partly drawn) [Example 75, methyl(2-((1R,3S,5R)-3-(4-(6-((2-((1R,3S,5R)-2-(((methoxycarbonyl)amino)(tetrahydro-2H-pyran-4-yl)acetyl)-2-azabicyclo[3.1.0]hex-3-yl)-1H-imidazol-4-yl)ethynyl)-2-naphthyl)-1H-imidazol-2-yl)-2-azabicyclo[3.1.0]hex-2-yl)-2-oxo-1-(tetrahydro-2H-pyran-4-yl)ethyl)carbamate]
read-out: EC50
  EC50: 0.123 nM
[1]
  EC50: 1.01 to 1000 nM

## COC(=O)N[C@H](C(=O)N1[C@@H]2C[C@@H]2C[C@H]1c1nc2ccc(-c3ccc4nc(-c5ccc6nc([C@@H]7C[C@H]8C[C@H]8N7C(=O)[C@@H](NC(=O)OC)C7CCOCC7)[nH]c6c5)ccc4c3)cc2[nH]1)C1CCOCC1 [Example 39, Dimethyl(2,6-quinolinediylbis(1H-benzimidazole-5,2-diyl(1R,3S,5R)-2-azabicyclo[3.1.0]hexane-3,2-diyl((1S)-2-oxo-1-(tetrahydro-2H-pyran-4-yl)-2,1-ethanediyl)))biscarbamate]
[1]
  EC50: 0.0101 to 1 nM

## COC(=O)N[C@H](C(=O)N1[C@@H]2C[C@@H]2C[C@H]1c1ncc(C#Cc2ccc3cc(-c4cnc([C@@H]5CC[C@H](C)N5C(=O)[C@@H](NC(=O)OC)C5CCOCC5)[nH]4)ccc3c2)[nH]1)C1CCOCC1 [Example 98, Methyl((1S)-2-((2S,5S)-2-(4-(6-((2-((1R,3S,5R)-2-((2S)-2-((methoxycarbonyl)amino)-2-(tetrahydro-2H-pyran-4-yl)acetyl)-2-azabicyclo[3.1.0]hex-3-yl)-1H-imidazol-4-yl)ethynyl)-2-naphthyl)-1H-imidazol-2-yl)-5-methyl-1-pyrrolidinyl)-2-oxo-1-(tetrahydro-2H-pyran-4-yl)ethyl)carbamate]
[1]
  EC50: 0.0101 to 1 nM

## COC(=O)N[C@H](C(=O)N1[C@@H]2C[C@@H]2C[C@H]1c1nc2ccc(-c3ccc4cc(-c5ccc6cc(-c7ccc8nc([C@@H]9C[C@H]%10C[C@H]%10N9C(=O)[C@@H](NC(=O)OC)C(C)C)[nH]c8c7)ccc6c5)ccc4c3)cc2[nH]1)C(C)C [Example 46, Methyl((1S)-1-(((1R,3S,5R)-3-(5-(6′-(2-((1R,3S,5R)-2-((2S)-2-((methoxycarbonyl)amino)-3-methylbutanoyl)-2-azabicyclo[3.1.0]hex-3-yl)-1H-benzimidazol-5-yl)-2,2′-binaphthalen-6-yl)-1H-benzimidazol-2-yl)-2-azabicyclo[3.1.0]hex-2-yl)carbonyl)-2-methylpropyl)carbamate]
read-out: EC50
  EC50: 170 nM
[1]
  EC50: 1.01 to 1000 nM

## COC(=O)N[C@H](C(=O)N1CCCC[C@H]1c1nc(-c2ccc(-c3ccc4cc(-c5c[nH]c([C@@H]6CCCCN6C(=O)[C@@H](NC(=O)OC)C(C)C)n5)ccc4c3)cc2)c[nH]1)C(C)C [Example 118, Methyl((1S)-1-(((2S)-2-(4-(4-(6-(2-((2S)-1-((2S)-2-((methoxycarbonyl)amino)-3-methylbutanoyl)-2-piperidinyl)-1H-imidazol-4-yl)-2-naphthyl)phenyl)-1H-imidazol-2-yl)-1-piperidinyl)carbonyl)-2-methylpropyl)carbamate]
read-out: EC50
  EC50: 0.0374 nM
[1]
  EC50: 0.0101 to 1 nM

## COC(=O)N[C@H](C(=O)N1C[C@@H](C)C[C@H]1c1ncc(-c2ccc(-c3ccc4cc(-c5cnc([C@@H]6C[C@H](C)CN6C(=O)[C@@H](NC(=O)OC)C6CCOCC6)[nH]5)ccc4c3)cc2)[nH]1)C1CCOCC1 [Example 129, Methyl(2-((2S,4S)-2-(4-(4-(6-(2-((2S,4S)-1-(((methoxycarbonyl)amino)(tetrahydro-2H-pyran-4-yl)acetyl)-4-methyl-2-pyrrolidinyl)-1H-imidazol-4-yl)-2-naphthyl)phenyl)-1H-imidazol-2-yl)-4-methyl-1-pyrrolidinyl)-2-oxo-1-(tetrahydro-2H-pyran-4-yl)ethyl)carbamate]
[1]
  EC50: 0.0101 to 1 nM

## COC(=O)N[C@H](C(=O)N1CCC[C@H]1c1ncc(-c2ccc(-c3ccc4cc(-c5ccc6nc([C@@H]7CCCN7C(=O)[C@@H](NC(=O)OC)C(C)C)[nH]c6c5)ccc4c3)cc2)[nH]1)C(C)C [Example 3, Methyl((1S)-1-(((2S)-2-(4-(4-(6-(2-(1-((2S)-2-((methoxycarbonyl)amino)-3-methylbutanoyl)-2-pyrrolidinyl)-1H-benzimidazol-5-yl)-2-naphthyl)phenyl)-1H-imidazol-2-yl)-1-pyrrolidinyl)carbonyl)-2-methylpropyl)carbamate]
[1]
  EC50: 0.0101 to 1 nM

## CN(C)[C@@H](C(=O)N1CCC[C@H]1c1nc2ccc(-c3ccc4cc(-c5ccc6nc([C@@H]7CCCN7C(=O)[C@@H](c7ccccc7)N(C)C)[nH]c6c5)ccc4c3)cc2[nH]1)c1ccccc1 [Example 8, (1R)-2-((2S)-2-(5-(6-(2-((2S)-1-((2R)-2-(Dimethylamino)-2-phenylacetyl)-2-pyrrolidinyl)-1H-benzimidazol-6-yl)-2-naphthyl)-1H-benzimidazol-2-yl)-1-pyrrolidinyl)-N,N-dimethyl-2-oxo-1-phenylethanamine]
[1]
  EC50: 0.0101 to 1 nM

## COC(=O)N[C@H](C(=O)N1[C@@H]2C[C@@H]2C[C@H]1c1ncc(-c2ccc(-c3ccc4nc(-c5cnc([C@@H]6C[C@H]7C[C@H]7N6C(=O)[C@@H](NC(=O)OC)C(C)C)[nH]5)ccc4c3)cc2)[nH]1)C(C)C [Example 80, methyl((1S)-1-(((1R,3S,5R)-3-(4-(6-(4-(2-((1R,3S,5R)-2-((2S)-2-((methoxycarbonyl)amino)-3-methylbutanoyl)-2-azabicyclo[3.1.0]hex-3-yl)-1H-imidazol-4-yl)phenyl)-2-quinolinyl)-1H-imidazol-2-yl)-2-azabicyclo[3.1.0]hex-2-yl)carbonyl)-2-methylpropyl)carbamate]
read-out: EC50
  EC50: 0.00108 nM

## COC(=O)N[C@H](C(=O)N1C[C@@H](C)C[C@H]1c1ncc(-c2ccc(-c3ccc4nc(-c5cnc([C@@H]6C[C@H](C)CN6C(=O)[C@@H](NC(=O)OC)C6CCOCC6)[nH]5)ccc4c3)cc2)[nH]1)C1CCOCC1 [Example 114, Methyl((1S)-2-((2S,4S)-2-(4-(6-(4-(2-((2S,4S)-1-((2S)-2-((methoxycarbonyl)amino)-2-(tetrahydro-2H-pyran-4-yl)acetyl)-4-methyl-2-pyrrolidinyl)-1H-imidazol-4-yl)phenyl)-2-quinolinyl)-1H-imidazol-2-yl)-4-methyl-1-pyrrolidinyl)-2-oxo-1-(tetrahydro-2H-pyran-4-yl)ethyl)carbamate]
[1]
  EC50: 0.0101 to 1 nM

## COc1cccc2c(C(=O)N3[C@@H]4C[C@@H]4C[C@H]3c3ncc(C#Cc4ccc5cc(-c6cnc([C@@H]7C[C@H]8C[C@H]8N7C(=O)c7nc(Cl)cc8c(OC)cccc78)[nH]6)ccc5c4)[nH]3)nc(Cl)cc12 [Example 93, 3-Chloro-1-(((1R,3S,5R)-3-(4-(6-((2-((1R,3S,5R)-2-((3-chloro-5-methoxy-1-isoquinolinyl)carbonyl)-2-azabicyclo[3.1.0]hex-3-yl)-1H-imidazol-4-yl)ethynyl)-2-naphthyl)-1H-imidazol-2-yl)-2-azabicyclo[3.1.0]hex-2-yl)carbonyl)-5-methoxyisoquinoline]
read-out: EC50
  EC50: 40 nM
[1]
  EC50: 1.01 to 1000 nM

## COC(=O)N[C@H](C(=O)N1CCC[C@H]1c1nc2ccc(-c3ccc4cc(-c5ccc6nc([C@@H]7CCCN7C(=O)[C@@H](NC(=O)OC)C7CC7)[nH]c6c5)ccc4c3)cc2[nH]1)C1CC1 [Example 11, Dimethyl(2,6-naphthalenediylbis(1H-benzimidazole-5,2-diyl(2S)-2,1-pyrrolidinediyl((1S)-1-cyclopropyl-2-oxo-2,1-ethanediyl)))biscarbamate]
read-out: EC50
  EC50: 0.0182 nM
[1]
  EC50: 0.0101 to 1 nM
